Holding throughout (format): in vivo
One assay deals with AVEFA. Briefly: Pre-emergence herbicidal action (PE), greenhouse pot test, AVEFA. Particulars: pre-emergence (PE); application rate 320; scored visually after about 3 weeks vs untreated controls; 100% = plants have died, 0% = like control plants. From the text:
(§1) 1. Pre-emergence herbicidal action and crop plant compatibility (pre-emergence, PE) Seeds of monocotyledonous and dicotyledonous weed plants and crop plants are placed in plastic or organic planting pots and covered with soil. The compounds of the invention, formulated in the form of wettable powders (WP) or as emulsion concentrates (EC), are then applied onto the surface of the covering soil as aqueous suspension or emulsion with addition of 0.5% additive at a water application rate of […] (converted). After the treatment, the pots are placed in a greenhouse and kept under good growth conditions for the trial plants. After about 3 weeks, the effect of the preparations is scored visually in comparison with untreated controls as percentages. The tables below show the herbicidal activity of numerous compounds according to the invention against important harmful plants. For example, 100% activity=the plants have died, 0% activity=like control plants.

The subject of a further assay is SETVI. Briefly: Pre-emergence herbicidal action (PE), greenhouse pot test, SETVI. The conditions noted are these: pre-emergence (PE), Setaria viridis, application rate 320, scored visually after about 3 weeks.
Description: as §1

The test system of assay [1] is monocotyledonous and dicotyledonous weed plants and crop plants. Briefly: Pre-emergence herbicidal action and crop plant compatibility (PE), other species and comparison with A-117. Particulars: pre-emergence (PE), application rate 320, scored visually after about 3 weeks; for Herbicidal activity ABUTH: Abutilon theophrasti; for Herbicidal activity AMARE: Amaranthus retroflexus; for Herbicidal activity CYPES: Cyperus esculentus; for Herbicidal activity ECHCG: Echinochloa crus-galli; for Herbicidal activity MATIN: Matricaria inodora; for Herbicidal activity POLCO: Polygonum convolvulus; for Herbicidal activity STEME: Stellaria media; for Herbicidal activity VIOTR: Viola tricolor.
Description: as §1
(§2) In a comparative experiment, by way of example, the herbicidal activity of compound No. 2-13 according to the invention was compared to that of compound No. A-117 known from WO 2013/076315 A2.

In assay [2] the test system is monocotyledonous and dicotyledonous weeds and crop plants. Briefly: Post-emergence herbicidal action and crop plant compatibility (PO), including comparison with A-117. Particulars: post-emergence (PO), application rate 80, rated visually after about 3 weeks; for Herbicidal activity ABUTH: Abutilon theophrasti; for Herbicidal activity AMARE: Amaranthus retroflexus; for herbicidal activity AVEFA: Avena fatua; for Herbicidal activity CYPES: Cyperus esculentus; for Herbicidal activity ECHCG: Echinochloa crus-galli; for Herbicidal activity PHBPU: Ipomoea purpurea; for Herbicidal activity POLCO: Polygonum convolvulus; for Herbicidal activity SETVI: Setaria viridis; for Herbicidal activity STEME: Stellaria media; for Herbicidal activity VERPE: Veronica persica; for Herbicidal activity VIOTR: Viola tricolor; for Herbicidal activity ALOMY: Alopecurus myosuroides; for Herbicidal activity LOLMU: Lolium multiflorum; for Herbicidal activity MATIN: Matricaria inodora. As to the method: 2. Post-emergence herbicidal action and crop plant compatibility (post-emergence, PO) Seeds of monocotyledonous and dicotyledonous weeds and crop plants are placed in sandy loam in plastic or organic planting pots, covered with soil and cultivated in a greenhouse under controlled growth conditions. 2 to 3 weeks after sowing, the test plants are treated at the one-leaf stage. The compounds of the invention, formulated in the form of wettable powders (WP) or as emulsion concentrates (EC), are then sprayed onto the green parts of the plants as aqueous suspension or emulsion with addition of 0.5% additive at a water application rate of […] (converted). After the test plants had been kept in the greenhouse under optimum growth conditions for about 3 weeks, the activity of the preparations is rated visually in comparison to untreated controls. The tables below show the herbicidal activity of numerous compounds according to the invention against important harmful plants. For example, 100% activity=the plants have died, 0% activity=like control plants.
as §2

In the case of `CCn1nnnc1NC(=O)c1ccc(C(F)(F)F)c2c1OCC[S+]2[O-]` (centres unmarked) [Example 3-16], the “herbicidal activity AVEFA” value in the assay with AVEFA is reported as 100%. In addition, in the assay on SETVI, the “Herbicidal activity SETVI” value was determined as 100%. Moreover, in assay [1], the “Herbicidal activity ABUTH” value is on record as 100%, the “Herbicidal activity AMARE” value amounted to 100%, the “Herbicidal activity CYPES” value is recorded as 100% and the “Herbicidal activity ECHCG” value was 100%. In assay [1], the “Herbicidal activity MATIN” value amounted to 100%, the “Herbicidal activity POLCO” value is 100%, the “Herbicidal activity STEME” value is recorded as 100% and the “Herbicidal activity VIOTR” value is reported as 100%. For the same compound, in assay [2], the “Herbicidal activity ABUTH” value was found to be 100%, the “Herbicidal activity AMARE” value came to 100%, the “herbicidal activity AVEFA” value was 100% and the “Herbicidal activity CYPES” value is recorded as 90%. In assay [2], the “Herbicidal activity ECHCG” value was determined as 90%, the “Herbicidal activity PHBPU” value is recorded as 100%, the “Herbicidal activity POLCO” value is recorded as 90% and the “Herbicidal activity SETVI” value is on record as 90%. In addition, in assay [2], the “Herbicidal activity STEME” value is listed as 100%, the “Herbicidal activity VERPE” value turned out to be 100% and the “Herbicidal activity VIOTR” value is listed as 100%.

As for `Cn1nnnc1NC(=O)c1ccc(C(F)(F)F)c2c1OCC[S+]2[O-]` (centres unmarked) [Example 2-17, 5-(trifluoromethyl)-2,3-dihydro-1,4-benzoxathiine-N-(1-methyltetrazol-5-yl)-8-carboxamide 4-oxide], in the assay on AVEFA, the “herbicidal activity AVEFA” value is recorded as 80%. The “Herbicidal activity SETVI” value with SETVI worked out at 100%. In addition, in assay [1], the “Herbicidal activity ABUTH” value is listed as 100%, the “Herbicidal activity AMARE” value was found to be 100%, the “Herbicidal activity CYPES” value came out at 100% and the “Herbicidal activity ECHCG” value was 100%. For the same compound, in assay [1], the “Herbicidal activity MATIN” value is 90%, the “Herbicidal activity STEME” value worked out at 100% and the “Herbicidal activity VIOTR” value came out at 100%. In addition, in assay [2], the “Herbicidal activity ABUTH” value was 100%, the “Herbicidal activity ALOMY” value is 90%, the “Herbicidal activity AMARE” value was 90% and the “herbicidal activity AVEFA” value is reported as 100%. Moreover, in assay [2], the “Herbicidal activity CYPES” value was found to be 100%, the “Herbicidal activity ECHCG” value came to 90%, the “Herbicidal activity PHBPU” value is reported as 100% and the “Herbicidal activity LOLMU” value turned out to be 90%. Further, in assay [2], the “Herbicidal activity MATIN” value came to 90%, the “Herbicidal activity POLCO” value is reported as 90%, the “Herbicidal activity SETVI” value was found to be 90% and the “Herbicidal activity STEME” value amounted to 100%. Besides, in assay [2], the “Herbicidal activity VERPE” value stood at 100% and the “Herbicidal activity VIOTR” value is 100%.

On to `Cn1nnnc1NC(=O)c1ccc(C(F)(F)F)c2c1OCCS2(=O)=O` [Example 2-20, 5-(trifluoromethyl)-2,3-dihydro-1,4-benzoxathiine-N-(1-methyltetrazol-5-yl)-8-carboxamide 4,4-dioxide], for which the “herbicidal activity AVEFA” value with AVEFA was 100%. Besides, in the assay with SETVI, the “Herbicidal activity SETVI” value is recorded as 100%. For the same compound, in assay [1], the “Herbicidal activity ABUTH” value is recorded as 100%, the “Herbicidal activity AMARE” value worked out at 100%, the “Herbicidal activity CYPES” value came out at 100% and the “Herbicidal activity ECHCG” value was 100%. Also, in assay [1], the “Herbicidal activity MATIN” value turned out to be 100%, the “Herbicidal activity POLCO” value came out at 100%, the “Herbicidal activity STEME” value is reported as 90% and the “Herbicidal activity VIOTR” value was 100%. In addition, in assay [2], the “Herbicidal activity ABUTH” value turned out to be 100%, the “Herbicidal activity ALOMY” value came to 80%, the “Herbicidal activity AMARE” value was found to be 100% and the “herbicidal activity AVEFA” value came to 80%. In assay [2], the “Herbicidal activity CYPES” value turned out to be 80%, the “Herbicidal activity ECHCG” value is listed as 90%, the “Herbicidal activity PHBPU” value is on record as 90% and the “Herbicidal activity LOLMU” value is reported as 80%. Further, in assay [2], the “Herbicidal activity MATIN” value stood at 100%, the “Herbicidal activity POLCO” value stood at 100%, the “Herbicidal activity SETVI” value stood at 90% and the “Herbicidal activity STEME” value stood at 90%. In assay [2], the “Herbicidal activity VERPE” value is listed as 100% and the “Herbicidal activity VIOTR” value is 100%.
